# Test results taken from patent publication US7851490B2, “Benzimidazole derivatives and their use for modulating the GABAA receptor complex” (Neurosearch A/S, priority 2005, dated 2010).
# Biological target: benzodiazepine binding site on GABAA receptors
# Assay: In vitro inhibition of 3H-flunitrazepam (3H-FNM) binding
# Parameters: species or system rat
# Details: inhibition of specific binding of 3H-FNM (1 nM), cerebral cortex membranes from male Wistar rats, 40 min at 2° C.
# Procedure: In Vitro Inhibition of ^3H-flunitrazepam (^3H-FNM) Binding
# […] the benzodiazepine modulatory unit can selectively be labelled with ^3H-flunitrazepam.
# Preparations are performed at 0-4° C. unless otherwise indicated. Cerebral cortex from male Wistar rats (150-200 g) is homogenised for 5-10 sec in 20 ml Tris-HCl (30 mM, pH 7.4) using an Ultra-Turrax homogeniser. The suspension is centrifuged at 27,000×g for 15 min and the pellet is washed three times with buffer (centrifuged at 27,000×g for 10 min). The washed pellet is homogenized in 20 ml of buffer and incubated on a water bath (37° C.) for 30 min to remove endogenous GABA and then centrifuged for 10 min at 27,000×g. The pellet is then homogenized in buffer and centrifuged for 10 min at 27,000×g. The final pellet is resuspended in 30 ml buffer and the preparation is frozen and stored at −20° C.
# The membrane preparation is thawed and centrifuged at 2° C. for 10 min at 27,000×g. The pellet is washed twice with 20 ml 50 mM Tris-citrate, pH 7.1 using an Ultra-Turrax homogeniser and centrifuged for 10 min at 27,000×g. The final pellet is resuspended in 50 mM Tris-citrate, pH 7.1 (500 ml buffer per g of original tissue), and then used for binding assays. Aliquots of 0.5 ml tissue are added to 25 μl of test solution and 25 μl of ^3H-FNM (1 nM, final concentration), mixed and incubated for 40 min at 2° C. Non-specific binding is determined using Clonazepam (1 μM, final concentration). After incubation the samples are added 5 ml of ice-cold buffer and poured directly onto Whatman GF/C glass fibre filters under suction and immediately washed with 5 ml ice-cold buffer. The amount of radioactivity on the filters is determined by conventional liquid scintillation counting. Specific binding is total binding minus non-specific binding.
# 25-75% inhibition of specific binding must be obtained, before calculation of an IC50.
# The test value will be given as IC50 (the concentration (μM) of the test substance which inhibits the specific binding of ^3H-FNM by 50%). IC50=(applied test substance concentration, […]
row,Compound,IC50 [nM]
1,NCc1ccc2c(c1)ncn2-c1cccc(-c2nccs2)c1 [C-[1-(3-Thiazol-2-yl-phenyl)-1H-benzoimidazol-5-yl]-methylamine],11
2,CC(=O)NCc1ccc2c(c1)ncn2-c1cccc(-c2nccs2)c1 [N-[1-(3-Thiazol-2-yl-phenyl)-1H-benzoimidazol-5-ylmethyl]-acetamide],24
3,O=CNCc1ccc2c(c1)ncn2-c1cccc(-c2nccs2)c1 [N-{1-[3-(Thiazol-2-yl)-phenyl]-1H-benzoimidazol-5-ylmethyl}-formamide],4.8
